Read-outs that look alike come from different tables or passages of the source.
What was measured:
[1] = tested on: healthy elderly male and female subjects; design: species or system human; conditions: in vivo, po
[2] = tested on: healthy, male and female subjects; experiment: Driving performance study, real driving on the road after evening or middle-of-the-night dosing; assay type: in vivo, human; conditions: for effect on driving: gaboxadol 15 mg; for effect on memory test, body sway, DSST or critical tracking: in vivo
From the text: The study participants included healthy, male and female subjects between 21 and 45 years of age, with a valid drivers license for at least 3 years.
Following a cognitive and psychomotor test battery, the driving test started at 9 am and lasted for one hour.

insomnia = conditions: three-month efficacy study; cited from earlier work
[3] = tested on: normal healthy adult subjects; experiment: Intravenous and oral tolerability and safety in healthy adult subjects; assay type: in vivo, human
From the text: There was a washout of 4 days between each treatment period.
The study included healthy, male and female subjects between 18 and 45 years of age within 30% of ideal weight. The subjects in Part 1 of the study could be of either gender, but within Part 2 of the study there had to be at least 4 subjects of each gender.

[4] = tested on: healthy adults subjected to a 5-hour sleep restriction; experiment: Daytime performance after 5-hour sleep restriction (MSLT, SWS, KSS); assay type: in vivo, human
Protocol: The study included a 2-night single-blind placebo run-in period, a 4-night double-blind treatment period during which sleep was restricted to 5 hours and a 2-night single-blind placebo run-out period. The study included healthy male and female volunteers 18 to <55 years of age.
The primary endpoints included observations based on the Multiple Sleep Latency Test (MSLT) and Slow Wave Sleep (SWS) assessment.

[5] = tested on: patients with a history of drug abuse; conditions: cited from earlier work
clinical = conditions: both, human, in vivo
[6] = middle-of-the-night administration, zolpidem 10 mg

SMILES: CCN(CC)CCN1C(=O)CN=C(c2ccccc2F)c2cc(Cl)ccc21 [Flurazepam]
- residual effect on Choice Reaction Time and Critical Flicker Fusion [1]: showed significant effect

SMILES: Oc1noc2c1CCNC2 [gaboxadol, 4,5,6,7-tetrahydroisoxazolo [5,4-c]pyridine-3-ol]
- tolerability ([2]; evening and middle-of-the-night dose): well tolerated
- effect on driving compared with 0.05% blood alcohol concentration ([2]; evening dose, 15 mg): less than the effect observed at a 0.05% blood alcohol concentration
- effect on driving ([2]; evening dose, zopiclone 7.5 mg): statistically significant effect
- most frequent adverse events ([2]; evening treatment): headache and somnolence
- effect on memory test, body sway, DSST or critical tracking [2]: no effect
- effect on driving [2, 6]: clinically relevant impairing effect
- most frequent adverse events ([2]; middle-of-the-night treatment): dizziness, nausea and somnolence
- effects in sleep onset and sleep maintenance (insomnia): failed to show significant effects
- most common clinical adverse experiences ([3]; both parts of the study): somnolence and dizziness
- serious adverse experiences ([3]; both parts of the study): no serious adverse experiences reported
- tolerability ([3]; single intravenous doses of 5 and 10 mg, single oral doses from 2.5 to 20 mg): generally well tolerated
- daytime sleepiness versus placebo (MSLT) ([4]; 15 mg, Sleep Restriction period, p=0.047, 1 sided): significantly less daytime sleepiness
- MSLT, longer than placebo on average ([4]; 15 mg, last two Sleep Restriction days): 2.01 min
- slow wave sleep (SWS) versus placebo ([4]; Sleep Restriction period, p<0.001, 1 sided): significantly more SWS
- biophysiological measures of stress (heart rate variability, cortisol levels, catecholamine levels, body temperature) versus placebo ([4]; in vivo): no differences
- daytime performance, neurocognitive battery effect sizes ([4]; in vivo): no strong evidence that gaboxadol improves daytime performance
- Karolinska Sleepiness Score (KSS), less than placebo on average ([4]; last two Sleep Restriction days, p=0.058, 1 sided, LDA model): 0.68
- SWS, longer than placebo on average ([4]; last two Sleep Restriction nights): 20.53 min
- Renal clearance (CLR) (human, in vivo): greater than glomerular filtration rate
- steady-state volume of distribution (Vss) (human, in vivo, iv): moderate
- systemic clearance (CL) (human, in vivo, iv): moderate
- AUC0-inf and Cmax versus dose (oral administration): increased with increasing dose
- AUC0-inf and Cmax versus dose (single intravenous doses): increased with increasing dose
- psychiatric adverse events [5]: steep increase in psychiatric adverse events
- residual effect on Choice Reaction Time and Critical Flicker Fusion [1]: did not show residual effect
- residual effects on other measurements (MSLT, DSST, Tracking, Memory tests, Body Sway, Leeds Sleep Evaluation Questionnaire) [1]: did not show any signs of residual effects
- bioavailability (clinical): 92%

SMILES: Cc1ccc(-c2nc3ccc(C)cn3c2CC(=O)N(C)C)cc1 [zolpidem]
- effect on driving [2, 6]: numerically greater effect

SMILES: CN1CCN(C(=O)OC2c3nccnc3C(=O)N2c2ccc(Cl)cn2)CC1 (stereo not shown) [zopiclone]
- effect on driving ([2]; evening dose, zopiclone 7.5 mg): numerically greater effect
- effect on memory test, body sway, DSST or critical tracking [2]: had effect on several of these tests
